Publication PMC12135518 (Antimicrobial Agents and Chemotherapy, 2025)
Read-outs that look alike come from different tables or passages of the source.

How the values were obtained:
[1] = at equivalent dosages, cited from earlier work
From the text: Different pharmacokinetic characteristics are anticipated in renal transplant patients depending on the unique physiologic status of these patients ([18], [19]). Moreover, in the early postoperative phase following kidney transplantation, patients undergo gradual recovery of renal function, accompanied by increased urine output and a rapid decline in serum creatinine levels, typically returning to normal within 2–4 weeks ([20][–][22]). […] In addition, renal transplant patients are mor ...

[2] = Population pharmacokinetic modeling of teicoplanin plasma concentrations (two-compartment model, Phoenix NLME, FOCE-ELS); assay type: in vivo, renal transplant patients
Protocol: This prospective study was conducted at the kidney transplantation department in the Second Xiangya Hospital of Central South University (Changsha, China). […] The exclusion criteria were as follows: (i) lack any of the demographic and laboratory data described below, (ii) unable to get the blood samples, and (iii) pregnancy. This study was approved by the Ethics Committee of the Second Xiangya Hospital, Central South University, and informed consent was obtained from all patients or legal representatives of the patients. The study employed a two-phase enrollment design to establish and validate the population PK model. Initial model development utilized patient data collected between January 2022 and December 2023. Following the establishment of the final population PK model, a distinct cohort of patients was prospectively recruited between November 2024 and March 2025 to conduct an external validation.
The supernatant was immediately stored at −80℃ until analysis.
Plasma samples (200 µL) were extracted by protein precipitation with MARG-1A (500 µL), after vortex oscillation for 1 minute, centrifugation at 14,500 r/min for 8 min, and 600 µL of the clear supernatant was transferred into autosampler vials for further analysis.
One-, two-, and three-compartment models with first-order elimination were evaluated as potential structural PK models based on changes in the objective function value (OFV, −2 × log-likelihood) and goodness-of-fit plots. The inter-individual variability of the PK parameters was evaluated using an exponential model. Residual variability was selected with additive, proportional, and combined error models:
The following patient covariates were tested for their influence on the PK parameters of teicoplanin: age, sex, body weight, ALT, AST, TBIL, DBIL, ALB, baseline, and real-time CrCL. The stepwise covariate modeling (SCM) approach was used to test the covariate model in this analysis. A reduction in OFVs of ≥3.84 was considered to be statistically significant (P < 0.05) for the inclusion of one covariate in the forward inclusion steps, and an increase in OFVs of ≥6.63 was considered to be statistically significant (P < 0.01) in the backward elimination steps.
The validity of the final model was assessed by visual inspection of goodness-of-fit (GoF) plots, including observed concentrations versus individual predictions (IPRED), observed concentrations versus population predictions (PRED), and conditional weighted residuals (CWRES) versus population predictions and time. Next, the accuracy and stability of the final model were evaluated using the bootstrap method. The medians and 95% confidence intervals of the PK parameter estimates were obtained from the 1,000 bootstrap runs. The model was considered stable if the typical population values for the PK parameters of the final model were within the 95% confidence interval of the bootstrap results, and the biases were less than 10% with no bias across zero.

[3] = test system: MRSA; settings: patients achieving AUC24h/MIC ≥900; cited from earlier work
[4] = cited from earlier work
[5] = test system: plasma albumin; settings: ref not given; cited from earlier work
From the text: After that, a suitable maintaining dose should be employed to sustain the target concentration.

[6] = renal transplant patients, 306 plasma samples from 79 patients

Question: With polymyxin B as the substance, how does the “incidence of neurological toxicity” value ([1]; other patients) read?
Answer: The value was 27%.

Question: What about the “incidence of pigment toxicity” value ([1]; other patients) of the same substance?
Answer: The value was 15%.

Question: What about the “incidence of neurological toxicity” value ([1]; renal transplant patients) of the same substance?
Answer: Its value is 63.4%.

Question: What about the “incidence of pigment toxicity” value ([1]; renal transplant patients) of the same substance?
Answer: The value was 51.5%.

Question: For teicoplanin, which “CL, bootstrap estimate (median)” value ([2]; bootstrap method (n = 992)) is on record?
Answer: Its value is 0.714 L/h.

Question: And the “CLd, bootstrap estimate (median)” value ([2]; bootstrap method (n = 992))?
Answer: The value was 4.22 L/h.

Question: And the “CrCLCL, bootstrap estimate (median)” value ([2]; bootstrap method (n = 992))?
Answer: Its value is 0.196.

Question: And the “Vc, bootstrap estimate (median)” value ([2]; bootstrap method (n = 992))?
Answer: The value was 11.3 L.

Question: And the “Vp, bootstrap estimate (median)” value ([2]; bootstrap method (n = 992))?
Answer: The value was 35 L.

Question: And the “distribution (volume) in the present model” value ([2]; renal transplant patients)?
Answer: The value was 46.6 L.

Question: And the “CLd, clearance between the central compartment and peripheral compartment (final model estimate)” value [2, 6]?
Answer: Its value is 4.22 L/h.

Question: What about the “Vc, volume distribution in the central compartment (final model estimate)” value [2, 6] of the same substance?
Answer: Its value is 11.3 L.

Question: And the “Vp, volume in the peripheral compartment (final model estimate)” value [2, 6]?
Answer: Its value is 35.3 L.

Question: And the “CL, clearance in the central compartment (final model estimate, typical value)” value ([2]; renal transplant patients, iv 400 mg q12h x3 then 400 mg once daily, 1 h infusion, 306 plasma samples from 79 patients, 2LC-MS/MS, CL=0.711×(CrCL÷17)^0.198)?
Answer: The value was 0.711 L/h.

Question: What about the treatment success rate [3] of the same substance?
Answer: Its treatment success rate is 87%.

Question: What about the “distribution (volume) in previous models” value ([4]; mostly critically ill patients) of the same substance?
Answer: Its value is 60.5 to 121.1 L.

Question: And the “CL in critically ill patients” value ([4]; previously reported values, critically ill patients, no ref printed at the value)?
Answer: Its value is 0.838 to 1.03 L/h.

Question: And the “plasma protein binding rate” value [5]?
Answer: Its value is “about 90%”.
